Test results reported in the NIST ThermoML archive (doi:10.1016/j.jct.2012.06.003).
Numbers after ± are expanded uncertainties.

Key:
[1] = for Normal melting temperature: Crystal
[2] = Molar enthalpy of transition or fusion; details: DSC

Molecule `CCCCCC[n+]1cccc(C)c1.O=S(=O)([O-])C(F)(F)F` [1-hexyl-3-methylpyridinium trifluoromethanesulfonate] has a Triple point temperature ([1]; Crystal 2, DTA) of 310.3 ± 0.4 K, a Normal melting temperature ([1]; DTA) of 64.61 ± 0.39 °C and a Normal melting temperature ([1]; Visual method) of 63 ± 0.1 °C. For the same molecule, the “Molar enthalpy of transition or fusion” value ([2]; Crystal 2) was 0.467 ± 0.0526 kcal/mol and the “Molar enthalpy of transition or fusion” value ([2]; Crystal) was 10 ± 0.217 kcal/mol.
